Our source for the melting point values is a melting point compilation (Tetko et al.; mined from patent text by program, amines drawn as free bases though some values may be those of a salt).

Usually melting point stands for the temperature of the solid-liquid transition.

Turning to `N#CCCNC(=O)c1cccc(-c2cccc3cc(Cc4cccc(C(F)(F)F)c4)[nH]c23)c1`, the melting point was 174 to 178 °C.
Under `COc1ccccc1Cc1n[nH]c2c1c(=O)n(-c1cccc(C(F)(F)F)c1)c1ncccc21` stands 229 to 231 °C; under `COC(=O)C(C)(C)OCC#Cc1cc(Cl)ccc1NS(=O)(=O)c1ccc(OC)cc1`, 98 to 100 °C.
Under `CC(C)c1ccc(Cc2ccc(CC#N)n2C)cc1` stands 59 to 64 °C.
Under `COC1(C)CN(c2ccc(N3C[C@H](CNC(C)=O)OC3=O)cc2F)C1` stands 113 to 114 °C; under `O=C(O)c1ccc(C2=NOC(c3cc(Cl)cc(Cl)c3)(C(F)(F)F)C2)cc1F` (stereo not given), 172 to 174 °C.
For `COC(=O)C(=Cc1cc(OC)cc(OC)c1)c1ccc(O)cc1`, the melting point is 106 to 108 °C.
Under `NS(=O)(=O)OCCCCCOS(N)(=O)=O` stands 96.5 to 99 °C; under `Oc1cc(Br)cc(O)c1F`, 83 to 86 °C; under `Fc1c(F)c(F)c(CSc2nc3ccccc3s2)c(F)c1F`, 51 to 53 °C.
Take `CCOC(=O)N1CCN(C2Cc3cc(Cl)ccc3Sc3ccccc32)CC1` (stereo not given): the melting point lay in the range of 92 to 93 °C.
Under `CN(C(=O)c1ccc2nonc2c1)C1CCCCC1O` (stereo not given) stands 148 to 149 °C; under `Cc1cccc(-c2nc3cccnn3c2-c2ccnc(NCc3ccco3)c2)c1`, 150 to 151 °C; under `CCC(C)c1c(OC)ccc2c1oc1ccc(C#N)cc12` (stereo not given), 80 to 82 °C.
Under `CN(C)c1ccc(NS(=O)(=O)c2cccc(-c3ccc(F)cc3)c2)cc1` stands 158 to 160 °C; under `COc1ccc2c(c1)/C(=N\NC(N)=O)C(=O)N2CCN(C(C)C)C(C)C`, 157 to 159 °C; under `O=C1c2ccc(F)cc2C(=O)c2cc3cc(F)ccc3cc21`, 251 to 253 °C.
Turning to `CC(=O)Cn1nc(-c2sc(N)nc2-c2ccccc2)ccc1=O`, the melting point fell in the range of 216 to 219 °C.
As for `Nc1ccc(I)cc1CO`, the melting point turned out to be 125 °C.
In turn, `Cc1cccc(Nc2cc(Nc3cccc(O)c3)ncn2)c1` displayed a melting point of 188 to 189 °C.
With `CCC(CC(=O)NC(=O)OC(C)(C)C)Nc1ccc(C)cc1` (stereo not given) the figure was 96 to 97 °C.
With `CC(C)(C)C(=O)Nc1ccc2oc3c(c2c1)CCCC3` the figure was 210 to 211 °C; with `CC(C)n1c(=O)oc2cc(N3C[C@H](C(N)=O)OC3=O)ccc21`, 182 to 184 °C.
With `CNC(=O)C1CC(C)CCC1C(C)C` (stereo not given) the figure was 95 to 97 °C; with `COc1cc(OC)cc(-c2ncoc2-c2cc(N)c(OC)cc2O)c1`, 122 to 123 °C.
In the case of `CCCCCCCCCCOc1cc2oc3ccc(C(=O)O)cc3c(=O)c2cc1CCC(=O)O`, the melting point was > 210 °C.
Take `Cc1cc(C)n2nc(NS(=O)(=O)c3ccccc3[N+](=O)[O-])nc2n1`: the melting point is 255 to 256 °C.
`Cc1cc(N=CN(C)C)nc(-c2ccc([N+](=O)[O-])o2)n1` gave a melting point of 176 to 178 °C.
With `CCN(CC)CCn1nc2c3c(c(NC(=O)CN(CCOCc4ccccc4)Cc4ccccc4)ccc31)Oc1ccc(O)cc1-2` the figure was 165 to 168 °C.
With `Cc1nc(-c2ccc3cnc(Nc4ccc(N5CCN(C)CC5)cc4)nn23)cn1C` the figure was 242 to 244 °C; with `OCCCc1conc1-c1ccc(Cl)c(Cl)c1`, 62 to 63 °C; with `O=C(Nc1ccc(-c2cnc(-c3ccc(NC(=O)C4CCCCC4)cc3)[nH]2)cc1)c1cccnc1`, 315 to 317 °C.
Under `COCCn1cc2c(C3C(=O)Nc4ccc(Br)cc43)nc(NCc3cccnc3)nc2n1` (stereo not given) stands 300 to 301 °C.
As to `CC(C)(C)OC(=O)c1ncn2c1[C@@H]1CC=CN1C(=O)c1c(Cl)cccc1-2`, the melting point was in the range of 235 to 237 °C.
With `CC(C)(C)CN1C(=O)C(=O)N(c2cccnc2)C1=S` the figure was 111 to 113 °C; with `COc1cc(I)nc(N)n1`, 142 to 144 °C; with `NC(=O)C(O)c1cc(F)cc2cccnc12` (stereo not given), 169 to 171 °C.
Compound `CN(C)c1ccc(S(=O)(=O)NCCCCC(=O)O)cc1` came in with a melting point of 105 to 110 °C.
Take `OCc1cn(-c2ccc(OC(F)(F)F)c(Cl)c2)cn1`: the melting point was 115 to 116 °C.
Under `O=c1ccc2c(=O)c3ccccc3ccc2[nH]1` stands 320 °C; under `COc1cc(C=CN(C)C)c([N+](=O)[O-])cc1OC`, 125 to 126 °C; under `Cc1c(O)ccc2c1OCC(c1ccc3c(c1)OCO3)C2` (stereo not given), 130 to 131 °C.
Take `CCOC(=O)c1ccc(NC(=O)OC(C)(C)C)nn1`: the melting point lay within 87 to 88 °C.
Regarding `COc1ccc2c(c1)C(O)CC21CCN(CCCC(=O)c2ccc(F)cc2)C1` (stereo not given), the melting point lay within 113 to 115 °C.
Regarding `O=S(=O)(c1ccc(Br)cc1)n1ccc2ccccc21`, the melting point turned out to be 106 °C.
With `CCCc1c(OCCCCCOc2ccc3cc(OCC(=O)OCC)ccc3c2CCC(=O)OCC)ccc2c1OCCC2=O` the figure was 100 to 102 °C; with `CC12CCC(S(=O)(=O)C(F)(F)F)=CC1=CCC1C2CCC2(C)C(C(=O)O)CCC12` (stereo not given), 182 °C; with `Cc1ccc(N=CN(C)C=Nc2ccccn2)c(C)c1`, 100 °C.
Compound `CCCCCCCCCCCCCCCCCCNC(=O)OCC(CNS(=O)(=O)CCCCl)NC(=O)NC` (stereo not given) came in with a melting point of 87 to 90 °C.
With `Clc1ccc(C2=CCc3cc(Br)cnc3O2)cc1Cl` the figure was 138 to 140 °C; with `Cc1cccc(-n2c(-c3sc(Nc4ccccc4)nc3C)nc3ccccc3c2=O)c1`, 198 to 201 °C; with `Clc1cccc(Nc2ncnc3[nH]nc(NCc4ccc(-c5nccs5)cc4)c23)c1`, 241 to 243 °C.
Under `Cc1cccc(NC(=O)NC2N=C(c3ccccc3)c3ccccc3N(Cc3cc(C)ccn3)C2=O)c1` (racemic) stands 212 to 213 °C.
With `CCN1C(=O)CC(C(=O)O)C1c1ccccc1` (stereo not given) the figure was 151 to 156 °C.
Regarding `N#CCC(=O)c1ccc(Br)cc1`, the melting point stood at 164 °C.
Under `CCCCSCC(=O)c1cc2sc(=O)[nH]c2cc1Cl` stands 102 to 115 °C.
With `COc1cc(-c2ccc(O)c(C3(C)CCCCC3)c2)cc(C=C2SC(N(C)C)=NC2=O)c1O` the figure was 277 to 279 °C; with `CCOC(=O)c1ccc(O)c(-n2cc3c(c2-c2ccccc2)c(=O)n(C)c(=O)n3C)c1`, 129 to 130 °C.
`CCOC(=O)c1cn(OC)c2ccccc2c1=O`: the melting point lay in the range of 120 to 121 °C.
With `Nc1ccc(-c2ccc(-c3nc(N)nc(N)n3)cc2)cc1` the figure was > 250 °C.
In turn, `CC1(C)C(C(=O)Nc2ccccc2)C1(C)C` registered a melting point of 149 °C.
Under `COc1cc2c(N)nc(N3CCN(C(=O)C4COc5ccccc5O4)CC3)nc2c(OC)c1OC` (stereo not given) stands 269 to 271 °C; under `COC1=C(OC)C(=O)C(CCCCCCCCCCCCO)=C(C)C1=O`, 63 °C.
`COc1cc(OC)nc(NC(=O)NS(=O)(=O)Oc2ccccc2C(=O)OCCCl)n1`: the melting point lay in the range of 148 to 150 °C.
Under `CCOC(=O)c1cccc(N2C(=O)C=CC2=O)c1C(=O)OCC` stands 86 to 90 °C; under `CCCOc1ccc2c(c1)NC(=O)CO2`, 102 to 104 °C.
In the case of `CCOc1cc(Oc2ncc(Cl)cn2)ccc1[N+](=O)[O-]`, the melting point lay in the range of 114 to 115 °C.
With `COCc1c(C(C)=O)ncc2c1c1cc(OCc3ccccc3)ccc1n2S(=O)(=O)c1ccc(C)cc1` the figure was 173 to 175 °C; with `COc1ccc2nc(-n3ccnc3)nc(NCCS(C)=O)c2c1` (stereo not given), 238 to 242 °C.
Under `CN1C(=O)c2cccnc2N(C)c2nc(-c3ccc[nH]3)ccc21` stands 158 to 160 °C; under `Cc1cccc(NC(=O)Cn2c3c(c4cc(Cl)c(Cl)cc42)CCN(C(=O)OC(C)(C)C)CC3)c1C`, 186 to 188 °C.
In turn, `CC(=O)c1ccc(S(=O)(=O)C[N+](=O)[O-])cc1` showed a melting point of 94 to 95 °C.
The compound `COC(=O)C(=O)c1ccc(OCCOc2ccc3ccccc3c2)cc1C` showed a melting point of 118 to 120 °C.
`c1ccc2nc(-c3cc4nccnc4[nH]3)ccc2c1` came in with a melting point of 293 to 295 °C.
Under `COc1cc(F)ccc1N1CCN(CCCn2c(=O)[nH]c3c(c2=O)CCCC3)CC1` stands 230 to 232 °C; under `CCOc1cc(N)ccc1-c1ccc(-c2ccc(N)cc2OCC)o1`, 192 to 193 °C.
With `Cc1ccc(S(=O)(=O)N(CCN(CC(=O)Cl)S(=O)(=O)c2ccc(C)cc2)CCN(CC(=O)Cl)S(=O)(=O)c2ccc(C)cc2)cc1` the figure was 136 to 137 °C; with `COc1ccc(C2CC=CCC2NC(=O)c2ccc(OCC3CC3)c(OCC3CC3)c2)cc1OC` (stereo not given), 152 to 154 °C.
For `CCCCNC(=O)c1nc(-c2ccccc2)c(-c2ccc(=O)n(C(C)C)n2)s1`, the melting point was found to be 148 °C.
Under `COC(=O)NC(C)(C)c1ccc(C)cc1` stands 42 to 43 °C; under `CCCN1N=C2C(=Cc3ccc(OC)cc3)CS(=O)(=O)CC2C1c1ccc(OC)cc1` (stereo not given), 195 to 198 °C.
In turn, `O=C(O)c1ccc(Oc2nccs2)c(F)c1` registered a melting point of 133 to 134 °C.
With `COc1cccc2c1C[C@H]1C[C@@H](CCN3CCC(O)(c4ccc(Cl)cc4)CC3)CN(C)[C@@H]1C2` the figure was 212 to 215 °C.
With `CCOc1c2c(nc3c1cnn3CC)C(=O)c1ccccc1CC2` the figure was 150 to 152 °C.
With `COc1cc([N+](=O)[O-])ccc1-c1cncs1` the figure was 125 to 128 °C; with `COc1ccc2c(=O)c3oc4c5ccccc5ccc4c3oc2c1`, 282 to 284 °C; with `CCOC(=O)C1=Cc2cc([N+](=O)[O-])ccc2OC1C(F)(F)F` (stereo not given), 111 to 115 °C.
`Cc1cc(N=Nc2ccccn2)ccc1-c1ccc(-c2ccc(N=Nc3ccccn3)cc2C)s1` gave a melting point of 152 to 153 °C.
With `O=C(c1c(F)cccc1F)N1CS(=O)(=O)CN(c2ccc(Cl)cc2)C1=O` the figure was 274 to 275 °C; with `C#CCOc1ccc2ccccc2c1COC(=O)C1CC1`, 68 to 73 °C.
